According to patent US8796253B2, “Heteroaryl substituted pyrazole derivatives useful for treating hyper-proliferative disorders and diseases associated with angiogenesis” (Bayer Intellectual Property GmbH, priority 2007, dated 2014):

test system: HCT-116 cells stably transfected with a Luciferase reporter gene under the control of HIF-responsive element; test: HIF-Luciferase Assay; format: cell-based; settings: Homo sapiens, HCT-116, HIF-Luciferase Assay, HCT-116 reporter cells, overnight at 1% oxygen; individual values
Procedure: HCT-116 cells stably transfected with a Luciferase reporter gene under the control of HIF-responsive element were plated in white 96- or 384-well plates at 30,000 or 5,000 cells/well, respectively, in 50 μL/well media (RPMI with 10% fetal bovine serum and 100 μg/mL Hygromycin). Cells were incubated overnight at 37° C. in a humidified incubator containing 5% CO2 under normal oxygen. The next day test compounds were added to the wells at various concentrations (0-10 μM, 0.1% final DMSO concentration) and placed in a hypoxic chamber overnight at 1% oxygen. Following the exposure to hypoxic conditions, 50 μL/well of Bright Glo reagent (Promega, Wisconsin, USA) was added to the wells and luminescence was measured after 5 min. Cells incubated under normal oxygen levels were used as background control. […] Compounds that have IC50 values between 1 μM and 10 μM include those of Examples 8, 16, 38, 39, 40, 41, 42, 43, 47, 48, 53, 54, 56, 57, 66, 69, and 72.

Compound	IC50
Cc1ccc(Cn2nc(-c3nc(-c4ccc(C5CCCCC5)cc4)co3)cc2C)cc1 [Example 81, 4-(4-Cyclohex-1-ylphenyl)-2-[5-methyl-1-(4-methylbenzyl)-1H-pyrazol-3-yl]-1,3-oxazole]	50 nM
Cc1ccc(Cn2nc(-c3nc(-c4ccc(C(C)(C)F)cc4)no3)cc2C)cc1 [Example 103, 3-[4-(1-fluoro-1-methylethyl)phenyl]-5-[5-methyl-1-(4-methylbenzyl)-1H-pyrazol-3-yl]-1,2,4-oxadiazole]	10 nM
Cc1ccc(Cn2nc(-c3nc(-c4ccc(SC(F)(F)F)cc4)no3)cc2C)cc1 [Example 105, 5-[5-methyl-1-(4-methylbenzyl)-1H-pyrazol-3-yl]-3-4-[(trifluoromethyl)sulfanyl]phenyl-1,2,4-oxadiazole]	30 nM
Cc1cc(-c2nc(-c3ccc(OC(F)(F)F)cc3)no2)nn1Cc1ccc(Cl)cc1 [Example 120, 5-[1-(4-Chlorobenzyl)-5-methyl-1H-pyrazol-3-yl]-3-[4-(trifluoromethoxy)phenyl]-1,2,4-oxadiazole]	20 nM
Cc1ccc(Cn2nc(-c3nc(-c4ccc(Cn5cccc5)cc4)no3)cc2C)cc1 [Example 140, 5-[5-Methyl-1-(4-methylbenzyl)-1H-pyrazol-3-yl]-3-[4-(1H-pyrrol-1-yl-methyl)phenyl]-1,2,4-oxadiazole]	40 nM

Second part, the compound after the results:

IC50	Compound
20 nM	Cc1ccc(Cn2nc(-c3nc(-c4ccc(C(C)(C)C)cc4)co3)cc2C)cc1 [Example 77, 4-(4-tert-Butylphenyl)-2-[5-methyl-1-(4-methylbenzyl)-1H-pyrazol-3-yl]-1,3-oxazole]
30 nM	Cc1cc(-c2nc(-c3ccc(OC(F)(F)F)cc3)no2)nn1Cc1ccc(C#N)cc1 [Example 121, 4-[(5-methyl-3-3-[4-(trifluoromethoxy)phenyl]-1,2,4-oxadiazol-5-yl-1H-pyrazol-1-yl)methyl]benzonitrile]

same assay, conditions: Homo sapiens, HCT-116, HIF-Luciferase Assay, HCT-116 reporter cells, overnight at 1% oxygen; potency groups

IC50	Compound
≤ 1000 nM	Cc1ccc(Cn2nc(-c3nc(-c4ccccc4)co3)cc2C)cc1 [Example 74, 2-[5-Methyl-1-(4-methylbenzyl)-1H-pyrazol-3-yl]-4-phenyl-1,3-oxazole]
≤ 1000 nM	Cc1ccc(Cn2nc(-c3nc(-c4ccc(Br)cc4)co3)cc2C)cc1 [Example 75, 4-(4-bromophenyl)-2-[5-methyl-1-(4-methylbenzyl)-1H-pyrazol-3-yl]-1,3-oxazole]
≤ 1000 nM	Cc1ccc(Cn2nc(-c3nc(-c4ccc(-c5ccc(Cl)cc5)cc4)co3)cc2C)cc1 [Example 76, 4-(4′-chlorobiphenyl-4-yl)-2-[5-methyl-1-(4-methylbenzyl)-1H-pyrazol-3-yl]-1,3-oxazole]
≤ 1000 nM	Cc1ccc(Cn2nc(-c3nc(-c4ccc(C(C)(C)C)cc4)co3)cc2C)cc1 [Example 77, 4-(4-tert-Butylphenyl)-2-[5-methyl-1-(4-methylbenzyl)-1H-pyrazol-3-yl]-1,3-oxazole]
